How the values were obtained:
SNK-6 (IL-2 2.5 ng/mL) [1] = experiment: drug sensitivity score (DSS) (DSS units); higher = more sensitive; extreme values may be limits of the assay; conditions: 72 h
KAI3 (IL-2 2.5 ng/mL) [2] = experiment: as above; conditions: 72 h
NK-92 (IL-2 2.5 ng/mL) [3] = experiment: as above; conditions: 72 h
[4] = tested on: normal primary NK cells, pool 1 (3 donors), resting (IL-2 0 ng/mL); experiment: as above; conditions: 72 h
NKL (IL-2 2.5 ng/mL) [5] = experiment: as above; conditions: 72 h
DERL-7 (IL-2 2.5 ng/mL) [6] = experiment: as above; conditions: 72 h
IMC-1 (IL-2 20 ng/mL) [7] = experiment: as above; conditions: 72 h
YT (IL-2 2.5 ng/mL) [8] = experiment: as above; conditions: 72 h
[9] = tested on: normal primary NK cells, pool 1 (3 donors) (IL-2 2.5 ng/mL); experiment: as above; conditions: 72 h
KHYG-1 (IL-2 2.5 ng/mL) [10] = experiment: as above; conditions: 72 h
NK-YS (IL-2 2.5 ng/mL) [11] = experiment: as above; conditions: 72 h
[12] = tested on: normal primary NK cells, pool 2 (3 donors) (IL-2 2.5 ng/mL); experiment: as above; conditions: 72 h
[13] = tested on: normal primary NK cells, pool 3 (3 donors) (IL-2 2.5 ng/mL); experiment: as above; conditions: 72 h
[14] = tested on: normal NK cells expanded with K562-aAPC; experiment: as above; conditions: 72 h; IL-2 2.5 ng/mL
Procedure: (§1)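 Drug sensitivity and resistance testing on K562-aAPC-expanded normal NK cells: 5 concentrations (10-fold steps over a 10,000-fold range), 72 h at 37 °C, viability by CellTiter-Glo normalised to DMSO and benzethonium chloride controls; DSS from the fitted curve.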

[15] = tested on: normal NK cells expanded with K562-aAPC; experiment: percent inhibition of viability; higher = more inhibition; conditions: 72 h, IL-2 2.5 ng/mL
Procedure: as §1

SNK-6 (IL-2 2.5 ng/mL) [16] = experiment: as above; conditions: 72 h
KAI3 (IL-2 2.5 ng/mL) [17] = experiment: as above; conditions: 72 h
NK-92 (IL-2 2.5 ng/mL) [18] = experiment: as above; conditions: 72 h
[19] = tested on: normal primary NK cells, pool 1 (3 donors), resting (IL-2 0 ng/mL); experiment: as above; conditions: 72 h
NKL (IL-2 2.5 ng/mL) [20] = experiment: as above; conditions: 72 h
DERL-7 (IL-2 2.5 ng/mL) [21] = experiment: as above; conditions: 72 h
IMC-1 (IL-2 20 ng/mL) [22] = experiment: as above; conditions: 72 h
YT (IL-2 2.5 ng/mL) [23] = experiment: as above; conditions: 72 h
[24] = tested on: normal primary NK cells, pool 1 (3 donors) (IL-2 2.5 ng/mL); experiment: as above; conditions: 72 h
KHYG-1 (IL-2 2.5 ng/mL) [25] = experiment: as above; conditions: 72 h
NK-YS (IL-2 2.5 ng/mL) [26] = experiment: as above; conditions: 72 h
[27] = tested on: normal primary NK cells, pool 2 (3 donors) (IL-2 2.5 ng/mL); experiment: as above; conditions: 72 h
[28] = tested on: normal primary NK cells, pool 3 (3 donors) (IL-2 2.5 ng/mL); experiment: as above; conditions: 72 h

CN1CCC(CNc2ccc3ncc(-c4cccc(OC(F)(F)F)c4)n3n2)CC1 [SGI-1776] (max concentration tested 10000 nM)
Conditions	drug sensitivity score
DERL-7 (IL-2 2.5 ng/mL) [6]	10.6
IMC-1 (IL-2 20 ng/mL) [7]	5.65
KAI3 (IL-2 2.5 ng/mL) [2]	7.99
KHYG-1 (IL-2 2.5 ng/mL) [10]	7.47
NK-92 (IL-2 2.5 ng/mL) [3]	6.86
NK-YS (IL-2 2.5 ng/mL) [11]	6.92
NKL (IL-2 2.5 ng/mL) [5]	8.62
SNK-6 (IL-2 2.5 ng/mL) [1]	5.51
YT (IL-2 2.5 ng/mL) [8]	6.74
[4]	9.01
[9]	7.48
[12]	9.22
[13]	6.78
[14]	9.44

percent inhibition of viability [%]
Conditions	1 nM	10 nM	100 nM	1000 nM	10000 nM
DERL-7 (IL-2 2.5 ng/mL) [21]	4.46	1.8	11.3	43.9	101
IMC-1 (IL-2 20 ng/mL) [22]	-2.53	-0.64	0.12	-0.28	101
KAI3 (IL-2 2.5 ng/mL) [17]	-4.36	-2.13	-0.56	14.2	104
KHYG-1 (IL-2 2.5 ng/mL) [25]	2.2	0.67	5.12	10.8	104
NK-92 (IL-2 2.5 ng/mL) [18]	0.53	2.3	2.24	6.57	105
NK-YS (IL-2 2.5 ng/mL) [26]	2.39	2.07	3.08	7.09	105
NKL (IL-2 2.5 ng/mL) [20]	-15.4	-12.2	-2.55	18.8	103
SNK-6 (IL-2 2.5 ng/mL) [16]	11.8	-1.96	7.5	-1.42	101
YT (IL-2 2.5 ng/mL) [23]	2.03	-1.52	2.24	5.9	105
[15]	0.39	2.03	3.74	25.6	101
[19]	4.88	-2.56	18.3	29.4	99.8
[24]	-1.59	-15.9	0.28	11.6	101
[27]	-5.28	-4.01	7.14	23.6	102
[28]	-9.4	-9.39	-5.33	7.82	100

Cc1nc(NC(=O)N2CCC[C@H]2C(N)=O)sc1-c1ccnc(C(C)(C)C(F)(F)F)c1 [Alpelisib] (max concentration tested 2500 nM)
Conditions	drug sensitivity score
DERL-7 (IL-2 2.5 ng/mL) [6]	0.82
IMC-1 (IL-2 20 ng/mL) [7]	0
KAI3 (IL-2 2.5 ng/mL) [2]	2.35
KHYG-1 (IL-2 2.5 ng/mL) [10]	0
NK-92 (IL-2 2.5 ng/mL) [3]	0.74
NK-YS (IL-2 2.5 ng/mL) [11]	0.18
NKL (IL-2 2.5 ng/mL) [5]	0.2
SNK-6 (IL-2 2.5 ng/mL) [1]	3.22
YT (IL-2 2.5 ng/mL) [8]	0.26
[4]	0.03
[9]	0
[12]	0.14
[13]	0
[14]	1.85

percent inhibition of viability [%]
Conditions	0.25 nM	2.5 nM	25 nM	250 nM	2500 nM
DERL-7 (IL-2 2.5 ng/mL) [21]	-4.58	-9.56	-0.97	-2.79	25.6
IMC-1 (IL-2 20 ng/mL) [22]	3.85	3.43	5.77	4.62	5.3
KAI3 (IL-2 2.5 ng/mL) [17]	6.58	6.32	4.01	8.23	30.4
KHYG-1 (IL-2 2.5 ng/mL) [25]	-0.82	0.62	4.26	2.48	8.78
NK-92 (IL-2 2.5 ng/mL) [18]	-1.19	0.59	11.2	7.16	16.2
NK-YS (IL-2 2.5 ng/mL) [26]	-0.06	-1.74	4.37	2.5	12.7
NKL (IL-2 2.5 ng/mL) [20]	-4.18	0.03	10.1	5.23	12.8
SNK-6 (IL-2 2.5 ng/mL) [16]	-6.11	8.58	10.5	15.4	29
YT (IL-2 2.5 ng/mL) [23]	-0.82	0.14	1.96	2.35	13
[15]	0.72	1.85	-0.5	3.19	30.6
[19]	-10.5	5.01	-8.93	6.1	10.3
[24]	-6.99	-1.42	-4.27	3.43	6.48
[27]	-4.3	-1.23	0.06	3.89	11.4
[28]	-7.64	-5.69	-6.05	0.32	2.93

Oc1ccc2c(c1)CC[C@H](c1ccccc1)[C@@H]2c1ccc(OCCN2CCCC2)cc1 [Lasofoxifene] (max concentration tested 1000 nM)
Conditions	drug sensitivity score
DERL-7 (IL-2 2.5 ng/mL) [6]	0
IMC-1 (IL-2 20 ng/mL) [7]	0.95
KAI3 (IL-2 2.5 ng/mL) [2]	0.26
KHYG-1 (IL-2 2.5 ng/mL) [10]	0
NK-92 (IL-2 2.5 ng/mL) [3]	0
NK-YS (IL-2 2.5 ng/mL) [11]	0
NKL (IL-2 2.5 ng/mL) [5]	0
SNK-6 (IL-2 2.5 ng/mL) [1]	0
YT (IL-2 2.5 ng/mL) [8]	0
[4]	0
[9]	0
[12]	0
[13]	0
[14]	0.59

percent inhibition of viability [%]
Conditions	0.1 nM	1 nM	10 nM	100 nM	1000 nM
DERL-7 (IL-2 2.5 ng/mL) [21]	-2.25	-2.91	-6	-9.21	0.79
IMC-1 (IL-2 20 ng/mL) [22]	0.35	0.07	4.03	6.29	19.9
KAI3 (IL-2 2.5 ng/mL) [17]	-1.79	-1.38	0	-0.11	15.5
KHYG-1 (IL-2 2.5 ng/mL) [25]	-2.09	-2.31	1.74	5.02	8.46
NK-92 (IL-2 2.5 ng/mL) [18]	6.27	1.85	5.66	-5.53	1.52
NK-YS (IL-2 2.5 ng/mL) [26]	1.84	-2.69	2.36	-0.77	10.5
NKL (IL-2 2.5 ng/mL) [20]	-11.5	-1.59	-8.69	-4.01	-9.81
SNK-6 (IL-2 2.5 ng/mL) [16]	4.04	34.2	14.3	17.7	-1.3
YT (IL-2 2.5 ng/mL) [23]	2.75	2.01	2.57	-4.31	1.17
[15]	-6.28	-2.87	-0.97	5.89	14.2
[19]	7.2	-0.67	3.19	-7	6.03
[24]	-0.49	-5.39	5.47	-10.7	0.81
[27]	-15.6	-6.78	-5.24	-11.7	-1.2
[28]	-15.8	-8.59	-8.05	-11	-1.01

Source: the supplement of paper PMC5908809
